Measured values reported in patent US11975055B2 (priority 2018, dated 2024).

System: rat model of MRMT-1 induced bone cancer pain
Details: in vivo

SMILES: CN1CC[C@]23c4c5ccc(O)c4O[C@H]2[C@@H](O)C=C[C@H]3[C@H]1C5 [Morphine]
- paw withdrawal threshold (allodynia induced by bone cancer): reversal of deficit in paw withdrawal threshold
